ChEMBL document CHEMBL5500324, “The potential of marine-derived piperazine alkaloids: Sources, structures and bioactivities” (Eur J Med Chem, 2024)
≈ marks a conversion by molar mass, not a printed value.

Columns and labels:
[1] = test system: SF-268; experiment: Cytotoxicity against human SF-268 cells assessed as reduction in cell growth incubated for 48 hrs by SRB assay; format: functional, cell-based; details: SF-268, 48 h
[2] = test system: NCI-H460; experiment: Cytotoxicity against human NCI-H460 cells assessed as reduction in cell growth incubated for 48 hrs by SRB assay; format: functional, cell-based; details: NCI-H460, 48 h
[3] = test system: MCF7; experiment: Cytotoxicity against human MCF7 cells assessed as reduction in cell growth incubated for 48 hrs by SRB assay; format: functional, cell-based; details: MCF7, 48 h
[4] = test system: HepG2; experiment: Cytotoxicity against human HepG2 cells assessed as reduction in cell growth incubated for 48 hrs by SRB assay; format: functional, cell-based; details: HepG2, 48 h
[5] = test system: P388; experiment: Cytotoxicity against mouse P388 cells assessed as reduction in cell viability; format: functional; details: read-out: ED50 (the source's name)
[6] = test system: P388; experiment: Cytotoxicity against mouse P388 cells; format: functional; details: read-out: ED50 (the source's name)
[7] = test system: MOLT-4; experiment: Cytotoxicity against human MOLT-4 cells assessed as reduction in cell viability by MTT assay; format: functional, cell-based
[8] = test system: Bel-7402; experiment: Cytotoxicity against human Bel-7402 cells assessed as reduction in cell viability measured for 48 hrs by MTT assay; format: functional, cell-based; details: Bel-7402, 48 h
[9] = test system: HL-60; experiment: Cytotoxicity against human HL-60 cells assessed as reduction in cell viability by MTT assay; format: functional, cell-based
[10] = test system: A549; experiment: Cytotoxicity against human A549 cells assessed as reduction in cell viability measured for 48 hrs by MTT assay; format: functional, cell-based; details: A549, 48 h
[11] = test system: HT-29; experiment: Cytotoxicity against human HT-29 cells assessed as inhibition of cell growth; format: functional, cell-based
[12] = test system: A549; experiment: Cytotoxicity against human A549 cells assessed as inhibition of cell growth; format: functional, cell-based
[13] = test system: P388; experiment: Cytotoxicity against mouse P388 cells assessed as inhibition of cell growth; format: functional, cell-based
[14] = test system: SK-MEL-28; experiment: Cytotoxicity against human SK-MEL-28 cells assessed as inhibition of cell growth; format: functional, cell-based
[15] = test system: U-937; experiment: Cytotoxicity against human U-937 cells assessed as reduction in cell growth incubated for 48 hrs by CCK-8 assay; format: functional, cell-based; details: U-937, 48 h
[16] = test system: DU-145; experiment: Cytotoxicity against human DU-145 cells assessed as cell growth inhibition measured after 48 hrs by MTT assay; format: functional, cell-based; details: DU-145, 48 h
[17] = test system: QG-56; experiment: Cytotoxicity against human QG-56 cells assessed as reduction in cell growth incubated for 24 hrs by MTT assay; format: functional, cell-based; details: QG-56, 24 h

CS[C@]1(CO)C(=O)N2[C@H]3C(=CC=C[C@@H]3OC(C)=O)C[C@@]2(SC)C(=O)N1C
IC50 [1]: 34 µM
IC50 [2]: 3.4 µM
IC50 [3]: 3.1 µM
IC50 [4]: 7 µM

CN1C(=O)[C@]23Cc4ccccc4N2C(=O)[C@@]1(CO)SS3
IC50 [1]: 1.35 µM
IC50 [2]: 1.27 µM
IC50 [3]: 0.68 µM
IC50 [4]: 1.52 µM

CC(C)[C@]12SS[C@]3(C(=O)N1C)[C@@H](O)C1(C45c6ccccc6N[C@H]4N4C(=O)[C@@]6(CO)SS[C@]4(C(=O)N6C)[C@H]5O)c4ccccc4N[C@@H]1N3C2=O (stereo partly drawn)
EC50 [5]: 1.75 ng/mL (≈ 2.36 nM)

CC(C)[C@]12SSSS[C@]3(C(=O)N1C)[C@@H](O)C1(C45c6ccccc6N[C@H]4N4C(=O)[C@@]6(C(C)C)SS[C@]4(C(=O)N6C)[C@H]5O)c4ccccc4N[C@@H]1N3C2=O (stereo partly drawn)
EC50 [6]: 2.1 ng/mL (≈ 2.57 nM)

COc1ccc2c(c1)N(CC=C(C)C)C(=O)[C@]21[C@H](C=C(C)C)N2C(=O)[C@@H]3CCCN3C(=O)[C@]2(O)[C@H]1O
IC50 [7]: 25.7 µM
IC50 [8]: 68.8 µM
IC50 [9]: 43.5 µM
IC50 [10]: 35.9 µM

COc1c(C)cc2c(c1O)[C@@H]1N[C@H](C2)[C@H](O)N2[C@H]1[C@@H]1SC[C@H](N)C(=O)OC[C@H]2c2c(O)c(OC)c(C)c(OC(C)=O)c21
IC50 [11]: 10 ng/mL (≈ 16.6 nM)
IC50 [12]: 10 ng/mL (≈ 16.6 nM)
IC50 [13]: 10 µM
IC50 [14]: 5 ng/mL (≈ 8.31 nM)

CS[C@]1(C(C)C)C(=O)N2C(=CC3(C45c6ccccc6N[C@H]4N4C(=O)[C@H](CO)N(C)C(=O)[C@@]4(O)[C@H]5O)c4ccccc4N[C@H]23)C(=O)N1C (stereo partly drawn)
EC50 [6]: 15200 ng/mL (≈ 23000 nM)

CO[C@@]12C(=O)N(C)[C@@H](CO)C(=O)N1[C@@H]1Nc3ccccc3C1(C13c4ccccc4N[C@@H]1N1C(=O)[C@@]4(C(C)C)SS[C@]1(C(=O)N4C)[C@@H]3O)[C@H]2O (stereo partly drawn)
EC50 [6]: 180 ng/mL (≈ 254 nM)

CSS[C@@]1(C(C)C)C(=O)N2C(=CC3(C45c6ccccc6N[C@H]4N4C(=O)[C@H](CO)N(C)C(=O)[C@@]4(O)[C@H]5O)c4ccccc4N[C@H]23)C(=O)N1C (stereo partly drawn)
EC50 [6]: 1100 ng/mL (≈ 1590 nM)

COc1ccc2c3c(n(CC=C(C)C)c2c1)[C@H](C=C(C)C)N1C(=O)[C@@H]2CCCN2C(=O)[C@]1(O)C3=O
IC50 [7]: 25.7 µM
IC50 [8]: 25.6 µM
IC50 [9]: 1.9 µM
IC50 [10]: 16.9 µM

COc1ccc2c(c1)N(/C=C/C(C)(C)OO)C(=O)[C@]21[C@H](C=C(C)C)N2C(=O)[C@@H]3CCCN3C(=O)[C@]2(O)[C@H]1O
IC50 [7]: 3.1 µM
IC50 [8]: 98.4 µM
IC50 [9]: 2.3 µM
IC50 [10]: 3.1 µM

COc1ccc2c3c([nH]c2c1)[C@H](C=C(C)C)N1C(=O)[C@@H]2CCCN2C(=O)[C@]1(O)C3
IC50 [15]: 18.2 µM

CC(C)[C@]12SS[C@]3(C(=O)N1C)[C@@H](O)C1(C45c6ccccc6N[C@H]4N4C(=O)[C@@]6(C(C)C)SS[C@]4(C(=O)N6C)[C@H]5O)c4ccccc4N[C@@H]1N3C2=O (stereo partly drawn)
EC50 [6]: 3.8 ng/mL (≈ 5.05 nM)

COc1ccc2c3c([nH]c2c1)[C@H](C=C(C)C)N1C(=O)[C@@H]2CCCN2C(=O)[C@@]1(O)[C@H]3O
IC50 [15]: 92.4 µM

COc1cc2c(cc1O)CCN[C@@]21CS[C@@H]2c3c(OC(C)=O)c(C)c4c(c3[C@H](COC1=O)N1[C@@H]2[C@@H]2N[C@@H](Cc3cc(C)c(OC)c(O)c32)[C@@H]1O)OCO4
IC50 [11]: 0.5 ng/mL (≈ 0.669 nM)
IC50 [12]: 0.2 ng/mL (≈ 0.267 nM)
IC50 [13]: 0.2 µM
IC50 [14]: 5 ng/mL (≈ 6.69 nM)

CC(C)[C@]12SS[C@]3(C(=O)N1C)[C@@H](O)C1(C45c6ccccc6N[C@H]4N4C(=O)[C@@]6(CO)SSS[C@]4(C(=O)N6C)[C@H]5O)c4ccccc4N[C@@H]1N3C2=O (stereo partly drawn)
EC50 [5]: 2.4 ng/mL (≈ 3.1 nM)

CC(C)[C@]12SSS[C@]3(C(=O)N1C)[C@@H](O)C1(C45c6ccccc6N[C@H]4N4C(=O)[C@@]6(CO)SSSS[C@]4(C(=O)N6C)[C@H]5O)c4ccccc4N[C@@H]1N3C2=O (stereo partly drawn)
EC50 [6]: 4.6 ng/mL (≈ 5.5 nM)

CO[C@@]12C(=O)N(C)[C@@H](CO)C(=O)N1[C@@H]1Nc3ccccc3C1(C13c4ccccc4N[C@@H]1N1C(=O)[C@@]4(C(C)C)SSSS[C@]1(C(=O)N4C)[C@H]3O)[C@@H]2O (stereo partly drawn)
EC50 [6]: 1050 ng/mL (≈ 1360 nM)

CO[C@@]12C(=O)N(C)[C@@H](CO)C(=O)N1[C@@H]1Nc3ccccc3C1(C13c4ccccc4N[C@@H]1N1C(=O)[C@@]4(C(C)C)SS[C@]1(C(=O)N4C)[C@H]3O)[C@@H]2O (stereo partly drawn)
EC50 [6]: 1400 ng/mL (≈ 1980 nM)

C=C(C)[C@H](O)Cn1c2c(c3ccc(OC)cc31)[C@H](O)[C@@]1(O)C(=O)N3CCC[C@H]3C(=O)N1[C@H]2C=C(C)C
IC50 [7]: 11 µM
IC50 [8]: 10.8 µM
IC50 [9]: 5.4 µM
IC50 [10]: 11.6 µM

CC(C)[C@]12SSS[C@]3(C(=O)N1C)[C@@H](O)C1(c4c[nH]c5ccccc45)c4ccccc4N[C@@H]1N3C2=O (stereo partly drawn)
EC50 [5]: 46 ng/mL (≈ 87.7 nM)

CS[C@@]1(C(C)C)C(=O)N2C(=CC3(C45c6ccccc6N[C@H]4N4C(=O)[C@H](CO)N(C)C(=O)[C@@]4(O)[C@H]5O)c4ccccc4N[C@H]23)C(=O)N1C (stereo partly drawn)
EC50 [6]: 14800 ng/mL (≈ 22400 nM)

CC(C)[C@]12SSS[C@]3(C(=O)N1C)[C@@H](O)C1(C45c6ccccc6N[C@H]4N4C(=O)[C@@]6(CO)SSS[C@]4(C(=O)N6C)[C@H]5O)c4ccccc4N[C@@H]1N3C2=O (stereo partly drawn)
EC50 [6]: 4.3 ng/mL (≈ 5.34 nM)

CS[C@]1(CO)C(=O)n2c(cc3ccccc32)C(=O)N1C
IC50 [1]: 35.7 µM
IC50 [2]: > 100 µM
IC50 [3]: 29.5 µM
IC50 [4]: 28.9 µM

CC(C)[C@]12SS[C@]3(C(=O)N1C)[C@@H](O)C1(c4c[nH]c5ccccc45)c4ccccc4N[C@@H]1N3C2=O (stereo partly drawn)
EC50 [5]: 86 ng/mL (≈ 175 nM)

C=C(C)[C@@H](O)Cn1c2c(c3ccc(OC)cc31)[C@H](O)[C@@]1(O)C(=O)N3CCC[C@H]3C(=O)N1[C@H]2C=C(C)C
IC50 [7]: 11 µM
IC50 [8]: 7 µM
IC50 [9]: 3.4 µM
IC50 [10]: 11 µM

CSS[C@]1(C(C)C)C(=O)N2C(=CC3(C45c6ccccc6N[C@H]4N4C(=O)[C@H](CO)N(C)C(=O)[C@@]4(O)[C@H]5O)c4ccccc4N[C@H]23)C(=O)N1C (stereo partly drawn)
EC50 [6]: 100 ng/mL (≈ 144 nM)

COc1ccc2c(c1)N(CC=C(C)C)C(=O)[C@]21[C@H](C=C(C)C)N2C(=O)[C@]3(O)CCCN3C(=O)[C@]2(O)[C@H]1O
IC50 [7]: 25.7 µM
IC50 [8]: 17.5 µM
IC50 [9]: 45 µM
IC50 [10]: 35.5 µM

CC(C)[C@]12SSSS[C@]3(C(=O)N1C)[C@@H](O)C1(c4c[nH]c5ccccc45)c4ccccc4N[C@@H]1N3C2=O (stereo partly drawn)
EC50 [5]: 56 ng/mL (≈ 101 nM)

CC(C)[C@]12SSS[C@]3(C(=O)N1C)[C@@H](O)C1(C45c6ccccc6N[C@H]4N4C(=O)[C@@]6(C(C)C)SS[C@]4(C(=O)N6C)[C@H]5O)c4ccccc4N[C@@H]1N3C2=O (stereo partly drawn)
EC50 [6]: 2.2 ng/mL (≈ 2.8 nM)

CC(C)[C@]12SS[C@]3(C(=O)N1C)[C@@H](O)C1(C45c6ccccc6N[C@H]4N4C(=O)[C@@]6(CO)SSSS[C@]4(C(=O)N6C)[C@H]5O)c4ccccc4N[C@@H]1N3C2=O (stereo partly drawn)
EC50 [5]: 1.85 ng/mL (≈ 2.3 nM)

COc1c(C)cc2c(c1O)[C@H]1[C@@H]3[C@@H]4SC[C@H](N)C(=O)OC[C@@H](c5c(O)c(OC)c(C)c(OC(C)=O)c54)N3[C@@H](O)[C@@H](C2)N1C
IC50 [11]: 2 ng/mL (≈ 3.25 nM)
IC50 [12]: 2 ng/mL (≈ 3.25 nM)
IC50 [13]: 2 µM
IC50 [14]: 2 ng/mL (≈ 3.25 nM)

CC(C)[C@]12SSS[C@]3(C(=O)N1C)[C@@H](O)C1(C45c6ccccc6N[C@H]4N4C(=O)[C@@]6(CO)SS[C@]4(C(=O)N6C)[C@H]5O)c4ccccc4N[C@@H]1N3C2=O (stereo partly drawn)
EC50 [6]: 4.4 ng/mL (≈ 5.69 nM)

CO[C@@]12C(=O)N(C)[C@@H](C(C)C)C(=O)N1[C@@H]1Nc3ccccc3C1(C13c4ccccc4N[C@@H]1N1C(=O)[C@@]4(C(C)C)SSS[C@]1(C(=O)N4C)[C@@H]3O)[C@H]2O (stereo partly drawn)
EC50 [6]: 190 ng/mL (≈ 252 nM)

CC(C)[C@]12SSSS[C@]3(C(=O)N1C)[C@@H](O)C1(C45c6ccccc6N[C@H]4N4C(=O)[C@@]6(CO)SS[C@]4(C(=O)N6C)[C@H]5O)c4ccccc4N[C@@H]1N3C2=O (stereo partly drawn)
EC50 [6]: 3 ng/mL (≈ 3.73 nM)

C/C=C(/C)C(=O)OC[C@H]1C2=C(C[C@H]3[C@H]4C5=C(C[C@@H]([C@H](C#N)N13)N4C)C(=O)C(C)=C(OC)C5=O)C(=O)C(C)=C(OC)C2=O [RENIERAMYCIN M]
IC50 [16]: 0.019 µM
IC50 [17]: 0.00076 µM
